Measured values from patent US9261497B2, “Method of treating cancer with modulators of SCFSkp2” (New York University, priority 2012, dated 2016).

How the values were obtained:
[1] = tested on: p27 in ECC-1 cells; experiment: p27 immunoblot in ECC-1 cells (whole cell lysates, nuclear and cytoplasmic fractions); settings: for Block of E2-induced decrease of p27: ECC-1, control siRNA transfected, 1 nM E2 plus 1 μM Lactacystin or 10 nM ICI 182,780
Protocol: The endometrial carcinoma cell line (derived from a well-differentiated endometrioid Type I ECA) ECC-1 cells (ATCC, Manassas, Va.) were plated at a density of 3×10^5/well/6-well plate and grown in DMEM:F12 supplemented with 10% FBS (BioWest, Ocala, Fla.). The cell line was passaged in the laboratory for fewer than 6 months after receipt. […] ECAs were plated at a density of 2.2×10^6 cells/6-well Primaria® plates (BD Biosciences, San Jose, Calif.) in McCoys 5A media without phenol red containing 10% charcoal-stripped FBS, 2 mM L-Glutamine (Invitrogen) and antimycotic antibiotic solution (Mediatech, Hendon, Va.).
For subcellular fractionation, following treatments, cells were separated into nuclear and cytoplasmic fractions using the NE-PER kit (Thermo Scientific), and 10 μg cytoplasmic and nuclear protein fractions were loaded onto SDS-PAGE for immunoblotting. […] The membranes were incubated with peroxidase-conjugated goat anti-rabbit or goat anti-mouse secondary antibodies in TBST (1:2000; Thermo Scientific). […] Protein bands were resolved using the SuperSignal West Dura kit (Thermo Scientific), visualized by exposure to X-ray film (HyBlot; Denville Scientific, Denville, N.J.), and following densitometric scanning (Kodak Logic-100), the protein bands were quantified by normalizing to β-actin and compared to the untreated control, and the values represented by the graphs of relative protein levels compared to actin in each well and shown as % of Vehicle control.

[2] = target: T1, Skp2-p27 interaction (Homo sapiens, UniProt P61024+Q13309); experiment: p27 binding to HA-Skp2 (HA-immunoprecipitation); settings: 10 μM; HA-Skp2 and Cks1 pretreated before p27-pT187; without ubiquitylation
T1 construct: made in house; host or cells: cell-free: rabbit reticulocyte lysate (TNT T7 Coupled Reticulocyte Lysate System, Promega) from pcDNA3.1 plasmids
T1 sequence (Q13309 whole entry): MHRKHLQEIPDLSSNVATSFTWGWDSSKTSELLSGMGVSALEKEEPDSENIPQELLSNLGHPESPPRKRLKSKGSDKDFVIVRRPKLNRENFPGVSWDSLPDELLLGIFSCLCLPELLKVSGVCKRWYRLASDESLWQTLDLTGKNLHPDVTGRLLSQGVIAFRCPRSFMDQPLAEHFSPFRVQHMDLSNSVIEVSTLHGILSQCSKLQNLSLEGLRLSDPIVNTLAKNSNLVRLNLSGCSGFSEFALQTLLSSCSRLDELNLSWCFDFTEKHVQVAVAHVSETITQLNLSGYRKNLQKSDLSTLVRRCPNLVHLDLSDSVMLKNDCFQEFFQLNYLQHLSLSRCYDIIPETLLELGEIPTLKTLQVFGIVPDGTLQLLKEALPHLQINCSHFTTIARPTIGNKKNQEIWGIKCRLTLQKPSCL
T1 sequence (P61024 whole entry): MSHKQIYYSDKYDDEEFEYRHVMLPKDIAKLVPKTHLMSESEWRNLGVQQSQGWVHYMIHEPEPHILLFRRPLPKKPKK
T1 sequence (P63208 whole entry partner): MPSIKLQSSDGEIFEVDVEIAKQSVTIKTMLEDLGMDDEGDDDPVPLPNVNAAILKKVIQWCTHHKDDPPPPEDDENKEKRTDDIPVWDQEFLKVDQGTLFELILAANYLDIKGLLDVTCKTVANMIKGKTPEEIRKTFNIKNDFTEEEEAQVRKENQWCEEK
T1 sequence (Q13616 whole entry partner): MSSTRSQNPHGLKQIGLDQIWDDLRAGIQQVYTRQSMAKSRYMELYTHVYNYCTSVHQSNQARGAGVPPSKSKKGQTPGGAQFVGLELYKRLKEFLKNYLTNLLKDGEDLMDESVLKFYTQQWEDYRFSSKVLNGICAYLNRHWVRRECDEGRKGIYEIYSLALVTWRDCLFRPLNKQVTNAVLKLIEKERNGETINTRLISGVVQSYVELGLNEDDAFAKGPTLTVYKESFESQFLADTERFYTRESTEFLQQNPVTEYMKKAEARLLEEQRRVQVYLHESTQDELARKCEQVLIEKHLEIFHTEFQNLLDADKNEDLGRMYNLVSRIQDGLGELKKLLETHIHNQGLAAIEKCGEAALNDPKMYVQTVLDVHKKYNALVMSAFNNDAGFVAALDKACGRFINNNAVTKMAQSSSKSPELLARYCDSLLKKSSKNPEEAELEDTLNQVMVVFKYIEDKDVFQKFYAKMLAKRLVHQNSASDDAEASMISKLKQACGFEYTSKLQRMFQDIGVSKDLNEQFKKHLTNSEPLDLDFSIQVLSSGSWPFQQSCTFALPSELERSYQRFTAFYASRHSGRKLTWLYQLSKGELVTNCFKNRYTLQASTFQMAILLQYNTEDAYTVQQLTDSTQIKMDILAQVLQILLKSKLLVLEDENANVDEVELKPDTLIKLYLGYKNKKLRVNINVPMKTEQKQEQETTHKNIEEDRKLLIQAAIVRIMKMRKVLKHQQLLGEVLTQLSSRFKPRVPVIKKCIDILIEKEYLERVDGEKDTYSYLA
T1 sequence (P62877 whole entry partner): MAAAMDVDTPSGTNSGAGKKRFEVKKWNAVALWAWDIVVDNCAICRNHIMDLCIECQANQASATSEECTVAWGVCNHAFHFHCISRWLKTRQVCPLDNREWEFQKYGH
Protocol: In vitro ubiquitylation assays were incubated with anti-HA affinity matrix (Roche) in IP buffer (50 mM Tris pH 7.6, 150 mM NaCl, 0.1% NP40, and Roche Complete EDTA-free protease tablet) for 16 h at 4° C. Beads were washed 3× with IP buffer and eluted with 2×SDS Sample Buffer (Boston Bioproducts) and 10% Beta-mercaptoethanol. For binding without ubiquitylation, HA-Skp2 IVT (10 μl) and Cks1 IVT (10 μl) were preincubated with anti-HA affinity matrix in IP buffer for 2 hours, with the addition of p27 kinase reaction (10 μl) for another 16 h incubation at 4° C. All reactions were analyzed after SDS/PAGE by western blotting. Where indicated, Skp2 and Cks1 were pretreated with 10 μM inhibitors for 30 minutes. Kinase reactions were performed with p27 IVT (10 μl) and 0.5 μg/ul CyclinE/CDK2 in kinase buffer (50 mM Tris HCL pH 7.5, 10 mM MgCl2, 2 mM ATP, 2.5 μM Okadaic Acid, and 0.6 mM DTT) at 30° C. for 1 h.

[3] = target: T2, His-6Skp1-Skp2-Cks1 (Homo sapiens, UniProt P61024+Q13309); experiment: Differential scanning fluorimetry (protein melt); assay type: binding; settings: compound 75 μM; protein 1.5 μM
T2 construct: His6-tagged human Skp2 (residues 89-424); Human full-length Cks1 was produced as described; made in house
T2 sequence (Q13309 89-424 limits assumed): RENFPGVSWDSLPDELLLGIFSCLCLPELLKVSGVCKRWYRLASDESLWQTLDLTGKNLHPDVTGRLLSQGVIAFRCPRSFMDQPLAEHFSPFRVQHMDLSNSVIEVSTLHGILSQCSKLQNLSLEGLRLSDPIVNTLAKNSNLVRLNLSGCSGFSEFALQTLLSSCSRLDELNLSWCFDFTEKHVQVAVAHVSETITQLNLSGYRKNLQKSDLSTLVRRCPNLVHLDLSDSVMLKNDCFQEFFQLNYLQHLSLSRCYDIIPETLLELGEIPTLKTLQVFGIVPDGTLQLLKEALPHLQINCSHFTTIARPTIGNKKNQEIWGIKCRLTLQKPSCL
T2 sequence (P61024 whole entry, the tested form may be a part): as the sequence (P61024 whole entry) above
Protocol: Protein melt assays were carried out following the manufacturer's protocol on the LightCycler 480 System II (Roche) using Sypro Orange dye (Sigma). Fluorescence (465 nm excitation/580 nm detection) was acquired (10 data points/sec) at a ramp rate of 0.06° C./sec between 20° C. and 85° C. Melting temperatures were calculated using the LightCycler 480 Protein Melt analysis tool (Roche).

[4] = tested on: p27 in 501 Mel, SK-MEL-147, and SK-MEL-173; experiment: Immunoblot of steady state protein levels in metastatic melanoma cell lines; assay type: cell-based, human; settings: 501 Mel cells; 400 nM
Protocol: 501 Mel cells were also treated with MG-132 (a proteasome inhibitor) to confirm that p27 and p21 induction were responsive to known UPS inhibitors (FIG. 4A, right). […] Thus, treatment of cells with inhibitors targeting the Skp2-Cks1 interface induces protein levels of specific Skp2-Cks1 substrates.
Whole cell extracts were prepared and immunoblotted as previously described Dorrello et al., “S6K1- and betaTRCP-mediated Degradation of PDCD4 Promotes Protein Translation and Cell Growth,” Science 314:467-471 (2006), which is hereby incorporated by reference in its entirety. For knockdown of Skp2 or p27, shRNAs were induced with 2 ng/ml doxycycline for 48 hours, with the last 16 hours co-treated with 0.1% Vehicle or 10 μM inhibitors as indicated. For cycloheximide chase, cells were pretreated 16 h with 0.1% Vehicle or 10 μM inhibitors, followed by 20 ng/ml cycloheximide (Sigma) and whole cell extracts collected for each time point. […] Scanning densitometry was performed on immunoblots using Image J software. For cell cycle analysis, cells were treated with 0.1% Vehicle or 10 μM inhibitors for 16 h. 1×10^6 cells were fixed in 70% ethanol for 2 h, treated with 200 μg/ml RNase A (Invitrogen) for 30 minutes, and stained with 20 μg/ml Propidium Iodine (Sigma). All samples were assayed in triplicates. Signal was detected using the Becton Dickson LSRII flow cytometer and cell cycle profiles were analyzed with FloJo.

[5] = target: T3, SCF-Skp2 (Skp2-Cks1) (Homo sapiens, UniProt P61024+Q13309); experiment: In vitro ubiquitylation assay, Skp2-mediated p27 ubiquitylation (Wild-Type Cks1); assay type: biochemical; settings: 50 μM compound, immunoblot for p27-(Ub)n
T3 construct: made in house; host or cells: cell-free: rabbit reticulocyte lysate (TNT T7 Coupled Reticulocyte Lysate System, Promega) from pcDNA3.1 plasmids
T3 sequence (Q13309 whole entry): as the sequence (Q13309 whole entry) above
T3 sequence (P61024 whole entry): as the sequence (P61024 whole entry) above
T3 sequence (P63208 whole entry partner): as the sequence (P63208 whole entry partner) above
T3 sequence (Q13616 whole entry partner): as the sequence (Q13616 whole entry partner) above
T3 sequence (P62877 whole entry partner): as the sequence (P62877 whole entry partner) above
Protocol: The 96 hits were tested in an in vitro ubiquitylation assay driven by in vitro transcribed/translated Skp2, Cks1, and p27 (Sitry et al., “Three Different Binding Sites of Cks1 are Required for p27-ubiquitin Ligation,” J. Biol. Chem. 277:42233-42240 (2002)). Assay sensitivity was established for various criteria (FIG. 1B): Enhanced ubiquitylation with Cks1 (lane 2), kinase activity requirement (lane 3), and responsiveness to known inhibitors of Cullin (lane 5) or Cdk2 (lane 6) activity (Meijer et al., “Biochemical and Cellular Effects of Roscovitine, a Potent and Selective Inhibitor of the Cyclin-dependent Kinases cdc2, cdk2 and cdk5,” Eur. J. Biochem. 243:527-536 (1997); Soucy et al., “An Inhibitor of NEDD8-activating Enzyme as a New Approach to Treat Cancer,” Nature 458:732-736 (2009), which are hereby incorporated by reference in their entirety). Compounds showing at least 50% inhibition of Skp2-mediated p27 ubiquitylation (FIG. 1C) were counter-screened for inactivity against two anti-target E3 ligases: MDM2 and SCF-βTrCP (FIGS. 6A-B). Compounds C1 and C2 were identified from the primary VLS and C16 and C20 were identified from a second VLS (FIG. 2).
In vitro reconstituted assays were performed as previously described (Dorrello et al., “S6K1- and betaTRCP-mediated Degradation of PDCD4 Promotes Protein Translation and Cell Growth,” Science 314:467-471 (2006), which is hereby incorporated by reference in their entirety) with the exceptions of the use of (1) unlabeled proteins (wild-type and mutant Skp2 and Cks1, p27, Flag-βTrCP, and HA-PDCD4) generated by in vitro transcription-translation (TNT T7 Coupled Reticulocyte Lysate System, Promega); (2) chain elongation with non-methylated ubiquitin; and (3) immunoblotting to detect poly-ubiquitylation. The following reagents were obtained from Boston Biochem: UBE1, His-UbcH3, His-UbcH5c, Ubiquitin, and Ubiquitin Aldehyde. Additional reagents include CDK2/CyclinE1 (Sigma-Aldrich), S6K (Invitrogen), Okadaic acid (Sigma), and DMSO (Sigma-Aldrich). For ubiquitin charging, UBE1 (100 nM) and His-UbcH3 (10 ng/μl) were incubated with ubiquitin (2.5 μg/μl), ATP (2 mM), and 10 μM […] of inhibitors or Vehicle control for 60 min at 30° C. Reactions were stopped in nondenaturing 2× Sample Buffer, with the addition of 10% Beta-mercaptoethanol as indicated, and analyzed by Western blotting.

[6] = tested on: ECC-1 cells; experiment: ECC-1 cell proliferation (MTS assay); assay type: cell-based, human; settings: Lactacystin-treated cells

For C[C@]12CC[C@@H]3c4ccc(O)cc4C[C@@H](CCCCCCCCC[S+]([O-])CCCC(F)(F)C(F)(F)F)[C@H]3[C@@H]1CC[C@@H]2O (some centres unmarked) [ICI 182,780, reference compound], the “Block of E2-induced decrease of p27” value ([1]; 18 h) was “nearly completely blocked” and the “Effect on E2-induced decrease in nuclear p27” value ([1]; ECC-1, E2 plus 10 nM ICI 182,780, 18 h) was “to the level of untreated control”.
For COc1ccc(Br)cc1C=C1SC(=S)N(Cc2cccnc2)C1=O [UM-C1, reference compound], the “p27 binding to Skp2” value [2] was “lost the ability to inhibit p27 from binding to Skp2” and the “Shift of melting temperature (Tm) of purified protein complex” value [3] was “not”.
CCN1C(=O)C(=Cc2ccccc2O)C(C(=O)OC)=C1C [UM-C2b, reference compound] was tested, and the “p27 binding to Skp2” value [2] was “lost the ability to inhibit p27 from binding to Skp2”.
In the case of NS(=O)(=O)OC[C@@H]1C[C@@H](n2ccc3c(N[C@H]4CCc5ccccc54)ncnc32)C[C@@H]1O [MLN-4924, reference compound], the “Neddylation of Cul1” value [4] is reported as “inhibited neddylation of Cul1”.
In the case of COc1cccc(-c2cc(=O)c3ccccc3o2)c1N [PD 98059, PD98059, reference compound], the “p27 less than control” value ([1]; ECC-1, E2 plus 20 μM PD98059, 18 h) is reported as 24%.
For COCCCN1C(=O)C(=Cc2ccccc2O)C(C(=O)OC)=C1C [UM-C2a, reference compound], the “Inhibition of Skp2-mediated p27 ubiquitylation” value [5] was “partially reduced p27 ubiquitylation”.
In the case of CC(=O)N[C@@H](CSC(=O)[C@]1([C@@H](O)C(C)C)NC(=O)[C@H](C)[C@@H]1O)C(=O)O [Lactacystin, reference compound], the “p27 in nuclear and cytoplasmic fractions” value ([1]; ECC-1 (FIG. 11D)) is reported as “increases p27 in both subcellular fractions”, the “Block of E2-induced decrease of p27” value ([1]; 18 h) is reported as “completely blocked” and the Inhibition of proliferation [6] is reported as 36%.
